Test [1] deals with Calpain activity in SH-SY5Y cells. The experiment in a line: SH-SY5Y spectrin breakdown product (SBDP-150) western blot assay. Format: cell-based. Particulars: SH-SY5Y cells, 25 uM A23187, SBDP-150 western blot, read-out: SH-SY5Y Spectrin IC50.
For a further test, the target named is T1, Human Calpain 2/NS1 (Homo sapiens, UniProt P17655).
T1 sequence (P17655 1-700): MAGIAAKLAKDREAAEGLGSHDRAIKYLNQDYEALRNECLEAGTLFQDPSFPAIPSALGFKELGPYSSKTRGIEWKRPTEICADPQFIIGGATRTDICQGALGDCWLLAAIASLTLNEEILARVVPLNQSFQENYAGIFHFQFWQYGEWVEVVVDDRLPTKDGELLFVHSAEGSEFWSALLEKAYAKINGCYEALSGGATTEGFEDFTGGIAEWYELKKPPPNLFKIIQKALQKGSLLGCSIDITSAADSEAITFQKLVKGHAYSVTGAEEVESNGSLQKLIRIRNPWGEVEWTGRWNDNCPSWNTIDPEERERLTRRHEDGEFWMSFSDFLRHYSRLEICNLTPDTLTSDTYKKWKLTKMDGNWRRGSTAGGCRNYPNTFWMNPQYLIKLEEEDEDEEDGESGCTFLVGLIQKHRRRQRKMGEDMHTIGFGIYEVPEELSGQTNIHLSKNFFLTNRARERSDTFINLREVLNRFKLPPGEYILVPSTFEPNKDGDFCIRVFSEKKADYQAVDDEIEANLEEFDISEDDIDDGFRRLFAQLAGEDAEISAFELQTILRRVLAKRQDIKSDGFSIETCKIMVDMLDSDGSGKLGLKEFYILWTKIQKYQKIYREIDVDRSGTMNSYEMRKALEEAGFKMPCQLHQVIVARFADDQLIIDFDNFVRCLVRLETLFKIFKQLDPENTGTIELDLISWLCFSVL
T1 sequence (P04632 1-268 partner): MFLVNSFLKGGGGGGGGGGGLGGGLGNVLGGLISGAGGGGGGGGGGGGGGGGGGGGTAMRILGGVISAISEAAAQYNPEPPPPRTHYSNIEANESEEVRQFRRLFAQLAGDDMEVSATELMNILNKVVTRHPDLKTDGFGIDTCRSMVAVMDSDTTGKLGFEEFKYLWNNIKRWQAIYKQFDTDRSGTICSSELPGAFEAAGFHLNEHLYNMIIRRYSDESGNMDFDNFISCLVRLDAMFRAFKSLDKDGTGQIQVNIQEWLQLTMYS
As to the kind of experiment: Calpain inhibition, continuous fluorescence (FRET substrate) assay, calpain 2. Format: biochemical. As to conditions: SensoLyte 520 FRET substrate, 25C. A digest of the protocol: (§1)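 Calpains preincubated with serially diluted inhibitors at 25 °C in 50 mM Tris pH 7.5, 100 mM NaCl, 1 mM DTT; CaCl2 plus 5-FAM/QXL 520 FRET substrate started the reaction. Fluorescence (490/520 nm) read 10 min; rates from 1-5 min slopes, IC50 from 4-parameter logistic fit.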

Test [2] concerns Calpain activity in SH-SY5Y cells. As to the kind of experiment: SH-SY5Y Suc-LLVY-AMC fluorescence assay. The format is cell-based. Particulars: SH-SY5Y cells, 100 uM Suc-LLVY-AMC, read-out: SH-SY5Y + AMC IC50.
A further test addresses T2, Human Calpain 1/NS1 (Homo sapiens, UniProt P07384).
T2 sequence (P07384 1-714): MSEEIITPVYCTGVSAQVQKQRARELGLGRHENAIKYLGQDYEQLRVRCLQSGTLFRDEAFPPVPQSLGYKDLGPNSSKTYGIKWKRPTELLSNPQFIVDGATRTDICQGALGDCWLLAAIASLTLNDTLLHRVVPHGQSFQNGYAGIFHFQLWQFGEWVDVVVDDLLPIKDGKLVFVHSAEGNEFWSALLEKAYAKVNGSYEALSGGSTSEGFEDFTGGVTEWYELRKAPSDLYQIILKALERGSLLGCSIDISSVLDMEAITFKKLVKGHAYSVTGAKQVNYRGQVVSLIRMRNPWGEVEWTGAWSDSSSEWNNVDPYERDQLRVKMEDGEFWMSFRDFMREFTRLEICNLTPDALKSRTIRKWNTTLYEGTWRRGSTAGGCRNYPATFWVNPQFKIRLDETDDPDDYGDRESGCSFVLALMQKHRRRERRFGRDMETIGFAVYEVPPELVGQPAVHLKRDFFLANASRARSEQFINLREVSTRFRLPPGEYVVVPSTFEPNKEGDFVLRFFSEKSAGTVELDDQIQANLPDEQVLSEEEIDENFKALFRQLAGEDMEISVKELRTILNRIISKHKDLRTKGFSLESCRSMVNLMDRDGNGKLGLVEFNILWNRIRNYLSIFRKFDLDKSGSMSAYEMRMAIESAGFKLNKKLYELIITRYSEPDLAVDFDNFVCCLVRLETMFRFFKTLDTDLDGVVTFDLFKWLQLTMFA
T2 sequence (P04632 1-268 partner): T1 sequence (P04632 1-268 partner)
The experiment in a line: Calpain inhibition, continuous fluorescence (FRET substrate) assay, calpain 1. Format: biochemical. Particulars: SensoLyte 520 FRET substrate, 25C. A digest of the protocol:
as §1

A further test deals with T3, Human Calpain 9/NS1 (Homo sapiens, UniProt O14815).
T3 sequence (O14815 1-690): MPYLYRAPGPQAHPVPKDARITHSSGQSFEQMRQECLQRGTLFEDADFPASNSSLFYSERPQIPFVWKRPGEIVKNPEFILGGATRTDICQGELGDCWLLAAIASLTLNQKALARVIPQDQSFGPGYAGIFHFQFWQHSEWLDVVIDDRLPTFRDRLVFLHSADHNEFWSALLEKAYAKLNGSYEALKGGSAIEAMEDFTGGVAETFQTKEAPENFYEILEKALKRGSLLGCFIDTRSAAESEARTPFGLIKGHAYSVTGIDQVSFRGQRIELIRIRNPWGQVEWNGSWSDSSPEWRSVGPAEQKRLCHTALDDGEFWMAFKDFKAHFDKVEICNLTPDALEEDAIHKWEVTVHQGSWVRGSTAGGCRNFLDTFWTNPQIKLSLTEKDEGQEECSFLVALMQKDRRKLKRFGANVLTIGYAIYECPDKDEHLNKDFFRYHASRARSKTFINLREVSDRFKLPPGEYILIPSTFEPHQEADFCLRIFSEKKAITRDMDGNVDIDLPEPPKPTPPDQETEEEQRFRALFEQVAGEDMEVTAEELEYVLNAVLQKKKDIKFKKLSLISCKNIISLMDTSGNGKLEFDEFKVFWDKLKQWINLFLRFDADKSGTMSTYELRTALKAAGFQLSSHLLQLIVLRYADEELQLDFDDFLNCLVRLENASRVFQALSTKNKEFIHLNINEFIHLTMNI
T3 sequence (P04632 1-268 partner): T1 sequence (P04632 1-268 partner)
As to the kind of experiment: Calpain inhibition, continuous fluorescence (FRET substrate) assay, calpain 9. The format is biochemical. As to conditions: SensoLyte 520 FRET substrate, 25C. A digest of the protocol:
as §1

The structures appear in SMILES notation.

As a reminder, the IC50 is the concentration that gives 50% inhibition. On to `O=C(NC(Cc1ccccc1)C(=O)c1ncco1)c1nsnc1-c1ccccc1` (centres unmarked) [Compound 85, N-(1-(OXAZOL-2-YL)-1-OXO-3-PHENYLPROPAN-2-YL)-4-PHENYL-1,2,5-THIADIAZOLE-3-CARBOXAMIDE], for which the IC50 is greater than 25 µM in test [1] (Homo sapiens); greater than 10 µM against Human Calpain 2/NS1; less than 10 µM in test [2] (Homo sapiens); greater than 10 µM on Human Calpain 1/NS1; greater than 10 µM against Human Calpain 9/NS1.

Consider `O=C(NC(Cc1ccccc1)C(=O)c1nc2ccccc2o1)c1nsnc1-c1ccccc1` (centres unmarked) [Compound 86, N-(1-(BENZO[d]OXAZOL-2-YL)-1-OXO-3-PHENYLPROPAN-2-YL)-4-PHENYL-1,2,5-THIADIAZOLE-3-CARBOXAMIDE], for which the IC50 in test [1] (Homo sapiens) was greater than 25 µM; at Human Calpain 2/NS1, greater than 10 µM; in test [2] (Homo sapiens), greater than 25 µM; against Human Calpain 1/NS1, greater than 10 µM; against Human Calpain 9/NS1, greater than 10 µM.

Consider `Cc1nc(-c2ccccc2F)c(C(=O)NC(Cc2cccc(F)c2)C(=O)C(N)=O)o1` (centres unmarked) [Compound 87, N-(4-AMINO-1-(3-FLUOROPHENYL)-3,4-DIOXOBUTAN-2-YL)-4-(2-FLUOROPHENYL)-2-METHYLOXAZOLE-5-CARBOXAMIDE], for which the IC50 in test [1] (Homo sapiens) was 10 to 25 µM; on Human Calpain 2/NS1, less than 3 µM; in test [2] (Homo sapiens), less than 10 µM; on Human Calpain 1/NS1 it was less than 3 µM; against Human Calpain 9/NS1 it was less than 3 µM.

As to `Cc1nc(-c2cccc3sccc23)c(C(=O)NC(Cc2ccccc2)C(=O)C(N)=O)o1` (centres unmarked) [Compound 88, N-(4-AMINO-3,4-DIOXO-1-PHENYLBUTAN-2-YL)-4-(BENZO[b]THIOPHEN-4-YL)-2-METHYLOXAZOLE-5-CARBOXAMIDE], the IC50 in test [1] (Homo sapiens) was greater than 25 µM; against Human Calpain 2/NS1, less than 3 µM; in test [2] (Homo sapiens) it was less than 10 µM; at Human Calpain 1/NS1, less than 3 µM; on Human Calpain 9/NS1 it was less than 3 µM.

Consider `Cc1nc(-c2ccccc2F)c(C(=O)NC(Cc2cccc(Cl)c2)C(=O)C(N)=O)o1` (centres unmarked) [Compound 89, N-(4-AMINO-1-(3-CHLOROPHENYL)-3,4-DIOXOBUTAN-2-YL)-4-(2-FLUOROPHENYL)-2-METHYLOXAZOLE-5-CARBOXAMIDE], for which the IC50 in test [1] (Homo sapiens) is less than 10 µM; on Human Calpain 2/NS1, less than 3 µM; in test [2] (Homo sapiens), less than 10 µM; against Human Calpain 1/NS1 it was less than 3 µM; against Human Calpain 9/NS1 it was less than 3 µM.

Regarding `Cc1nc(-c2ccoc2Cl)c(C(=O)NC(Cc2ccccc2)C(=O)C(N)=O)o1` (centres unmarked) [Compound 90, N-(4-AMINO-3,4-DIOXO-1-PHENYLBUTAN-2-YL)-4-(2-CHLOROFURAN-3-YL)-2-METHYLOXAZOLE-5-CARBOXAMIDE], the IC50 in test [1] (Homo sapiens) is 10 to 25 µM; at Human Calpain 2/NS1 it was less than 3 µM; in test [2] (Homo sapiens), less than 10 µM; against Human Calpain 1/NS1, less than 3 µM; on Human Calpain 9/NS1, less than 3 µM.

In the case of `Cc1nc(-c2cccc3ccsc23)c(C(=O)NC(Cc2ccccc2)C(=O)C(N)=O)o1` (centres unmarked) [Compound 91, N-(4-AMINO-3,4-DIOXO-1-PHENYLBUTAN-2-YL)-4-(BENZO[b]THIOPHEN-7-YL)-2-METHYLOXAZOLE-5-CARBOXAMIDE], the IC50 is less than 10 µM in test [1] (Homo sapiens); less than 3 µM at Human Calpain 2/NS1; less than 10 µM in test [2] (Homo sapiens); less than 3 µM against Human Calpain 1/NS1; less than 3 µM at Human Calpain 9/NS1.

Regarding `Cc1nc(-c2coc(Cl)c2)c(C(=O)NC(Cc2ccccc2)C(=O)C(N)=O)o1` (centres unmarked) [Compound 92, N-(4-AMINO-3,4-DIOXO-1-PHENYLBUTAN-2-YL)-4-(5-CHLOROFURAN-3-YL)-2-METHYLOXAZOLE-5-CARBOXAMIDE], the IC50 in test [1] (Homo sapiens) was 10 to 25 µM; against Human Calpain 2/NS1, less than 3 µM; in test [2] (Homo sapiens) it was less than 10 µM; on Human Calpain 1/NS1 it was less than 3 µM; against Human Calpain 9/NS1, less than 3 µM.

For the compound `O=C(NC(Cc1ccccc1)C(=O)c1nnn[nH]1)c1nsnc1-c1ccccc1` (centres unmarked) [Compound 93, N-(1-OXO-3-PHENYL-1-(1H-TETRAZOL-5-YL)PROPAN-2-YL)-4-PHENYL-1,2,5-THIADIAZOLE-3-CARBOXAMIDE], the IC50 in test [1] (Homo sapiens) was greater than 25 µM; against Human Calpain 2/NS1 it was greater than 10 µM; in test [2] (Homo sapiens), greater than 25 µM; at Human Calpain 1/NS1 it was greater than 10 µM; against Human Calpain 9/NS1, greater than 10 µM.

Turning to `NC(=O)C(=O)C(Cc1ccccc1)NC(=O)c1oc(C(F)F)nc1-c1cccc2cn[nH]c12` (centres unmarked) [Compound 94, N-(4-AMINO-3,4-DIOXO-1-PHENYLBUTAN-2-YL)-2-(DIFLUOROMETHYL)-4-(1H-INDAZOL-7-YL)OXAZOLE-5-CARBOXAMIDE], the IC50 in test [1] was less than 10 µM; against Human Calpain 2/NS1, less than 3 µM; in test [2], less than 10 µM; on Human Calpain 1/NS1 it was less than 3 µM; on Human Calpain 9/NS1, less than 3 µM.

Regarding `Cn1cc(C(=O)NC(Cc2ccc(C(F)(F)F)cc2)C(=O)C(N)=O)c(-c2ccccc2F)n1` (centres unmarked) [Compound 95, N-(4-AMINO-3,4-DIOXO-1-(4-(TRIFLUOROMETHYL)PHENYL)BUTAN-2-YL)-3-(2-FLUOROPHENYL)-1-METHYL-1H-PYRAZOLE-4-CARBOXAMIDE], the IC50 was 10 to 25 µM in test [1] (Homo sapiens); less than 3 µM against Human Calpain 2/NS1; greater than 25 µM in test [2] (Homo sapiens); less than 3 µM at Human Calpain 1/NS1; less than 3 µM at Human Calpain 9/NS1.

As for `Cc1nc(-c2ccccc2F)c(C(=O)NC(Cc2ccc(Cl)cc2)C(=O)C(N)=O)o1` (centres unmarked) [Compound 96, N-(4-AMINO-1-(4-CHLOROPHENYL)-3,4-DIOXOBUTAN-2-YL)-4-(2-FLUOROPHENYL)-2-METHYLOXAZOLE-5-CARBOXAMIDE], the IC50 was less than 10 µM in test [1] (Homo sapiens); less than 3 µM against Human Calpain 2/NS1; less than 10 µM in test [2] (Homo sapiens); less than 3 µM against Human Calpain 1/NS1; less than 3 µM at Human Calpain 9/NS1.

With `Cn1cc(C(=O)NC(Cc2ccc(Cl)cc2)C(=O)C(N)=O)c(-c2ccccc2F)n1` (centres unmarked) [Compound 97, N-(4-AMINO-1-(4-CHLOROPHENYL)-3,4-DIOXOBUTAN-2-YL)-3-(2-FLUOROPHENYL)-1-METHYL-1H-PYRAZOLE-4-CARBOXAMIDE], the IC50 was less than 10 µM in test [1] (Homo sapiens); less than 3 µM against Human Calpain 2/NS1; less than 10 µM in test [2] (Homo sapiens); less than 3 µM at Human Calpain 1/NS1; less than 3 µM against Human Calpain 9/NS1.

For the origin of these results see patent US20210009564A1, “CALPAIN MODULATORS AND THERAPEUTIC USES THEREOF” (BLADE THERAPERTICS, INC., priority 2018, published 2021).
